Experimental data as given in US11059810B2, “Pharmaceutically acceptable salt as renal outer medullary potassium channel inhibitor” (Jiangsu Hengrui Medicine Co., Ltd., priority 2016, dated 2021).

Assays:
[1] = Salt formation study (solubility, hygroscopicity); format: physicochemical; conditions: in words
Text: In a preferred embodiment, the salt can be selected from the group consisting of tartrate, hydrochloride, sulfate, methanesulfonate, phosphate, citrate, maleate, fumarate, malate, benzenesulfonate, p-toluenesulfonate and hydrobromide, and most preferably L-tartrate and malate. The L-tartrate of (R)-5-cyano-N-(1-(2-hydroxy-2-(4-methyl-1-oxo-1,3-dihydroisobenzofuran-5-yl)ethyl) piperidin-4-yl)-4-methoxypicolinamide, i.e. the compound of the following formula (I), can be obtained by reacting (R)-5-cyano-N-(1-(2-hydroxy-2-(4-methyl-1-oxo-1,3-dihydroisobenzofuran-5-yl)ethyl) piperidin-4-yl)-4-methoxypicolinamide with L-tartaric acid. The hydrochloride, sulfate, methanesulfonate, phosphate, citrate, maleate, fumarate, malate, benzenesulfonate, p-toluenesulfonate and hydrobromide of (R)-5-cyano-N-(1-(2-hydroxy-2-(4-methyl-1-oxo-1,3-dihydroisobenzofuran-5-yl)ethyl) piperidin-4-yl)-4-methoxypicolinamide can be prepared by using a similar method. […]

[2] = Pharmacokinetics assay in SD rats after intragastric administration (plasma LC/MS/MS); format: in vivo; conditions: po 5.0 mg/kg; for CL/F: read-out: Cl/F—obs (clearance)
Protocol: SD rats were used as test animals. The drug concentration in plasma at different time points was determined by LC/MS/MS method after intragastrical administration of the crystal form 2 of the malate of the present invention and free form. The pharmacokinetic behavior and property of the crystal form 2 of the malate of the present invention and free form were studied and evaluated in SD rats.
Samples: crystal form 2 of the malate of the present invention and free form (the product of Example 1), prepared according to the methods of Examples 14 and 1.
Test animals: 8 healthy SD rats, half male and half female, were divided in two groups, and purchased from SINO-BRITSH SIPPR/BK LAB. ANIMAL LTD., CO, with certificate No.: SOCK (Shanghai) 2008-0016.
Preparation of the test compounds: the test compounds were added to 0.5% CMC-Na to prepare 0.5 mg/mL homogeneous suspensions for oral administration by ultrasound.
Administration: after an overnight fasting, 8 healthy SD rats, half male and half female, were administered the test compounds intragastrically at an administration volume of 10 mL/kg.
After an overnight fasting, 8 healthy SD rats, half male and half female, were administered the test compounds intragastrically. Blood samples (0.1 mL) were taken by jugular vein puncture before administration and at 0.5, 1, 2, 4, 6, 8, 12, and 24 hours after administration, and heparin sodium was used as an anticoagulant. The blood samples were centrifuged for 10 minutes at 3,500 rpm to separate the blood plasma, which was stored at −20° C. The content of the test compound in the plasma of SD rats after intragastric administration was determined by LC/MS/MS method.

[3] = Stability of crystal forms spread flat in air under lighting, heating and high humidity (purity by HPLC); format: physicochemical
Protocol: The sample of crystal form I of the compound of formula (I) prepared in Example 2 and the sample of crystal form II prepared in Example 3 were spread flat in the air respectively to test the stability under conditions of lighting (4500 Lux), heating (40° C., 60° C.), and high humidity (RH 75%, RH 90%). Samplings were carried out on Day 5 and Day 10.

[4] = Special stability study of crystal form I (grinding, heating, tableting; XRPD/DSC); format: physicochemical
Text: Crystal form I of the compound of formula (I) prepared according to the method of Example 2 was ground, heated and tableted.

[5] = both sexes, rat, plasma, 0.5% CMC-Na suspension

CL/F [2, 5] [mL/min/kg] | AUClast (area under curve 0→t) ([2]; 0.5% CMC-Na suspension) [ng·h/mL] | purity as detected by HPLC ([3]; 40° C., day 0) [%] | purity as detected by HPLC ([3]; 40° C., day 5) [%] | purity as detected by HPLC ([3]; 40° C., day 10) [%] | purity as detected by HPLC ([3]; 60° C., day 0) [%] | purity as detected by HPLC ([3]; 60° C., day 5) [%] | purity as detected by HPLC ([3]; 60° C., day 10) [%] | purity as detected by HPLC ([3]; Lighting (4500 Lux), day 0) [%] | purity as detected by HPLC ([3]; Lighting (4500 Lux), day 5) [%] | purity as detected by HPLC ([3]; Lighting (4500 Lux), day 10) [%] | purity as detected by HPLC ([3]; RH 75%, day 0) [%] | purity as detected by HPLC ([3]; RH 75%, day 5) [%] | purity as detected by HPLC ([3]; RH 75%, day 10) [%] | purity as detected by HPLC ([3]; RH 90%, day 0) [%] | purity as detected by HPLC ([3]; RH 90%, day 5) [%] | purity as detected by HPLC ([3]; RH 90%, day 10) [%] | also measured | Compound
– | – | – | – | – | – | – | – | – | – | – | – | – | – | – | – | – | hygroscopicity ([1]; salt formation study): obviously hygroscopic | COc1cc(C(=O)NC2CCN(C[C@H](O)c3ccc4c(c3C)COC4=O)CC2)ncc1C#N [sulfate, (R)-5-cyano-N-(1-(2-hydroxy-2-(4-methyl-1-oxo-1,3-dihydroisobenzofuran-5-yl)ethyl)piperidin-4-yl)-4-methoxypicolinamide]
9.82 | 9283 | – | – | – | – | – | – | – | – | – | – | – | – | – | – | – | solubility [1]: low | COc1cc(C(=O)NC2CCN(C[C@H](O)c3ccc4c(c3C)COC4=O)CC2)ncc1C#N [Free form, (R)-5-cyano-N-(1-(2-hydroxy-2-(4-methyl-1-oxo-1,3-dihydroisobenzofuran-5-yl)ethyl)piperidin-4-yl)-4-methoxypicolinamide]
– | – | 99.47 | 99.38 | 99.15 | 99.47 | 99.22 | 98.87 | 99.47 | 99.23 | 98.62 | 99.47 | 99.30 | 99.10 | 99.47 | 99.30 | 99.10 | – | COc1cc(C(=O)NC2CCN(C[C@H](O)c3ccc4c(c3C)COC4=O)CC2)ncc1C#N.O=C(O)C(O)C(O)C(=O)O [Crystal form II, L-tartrate of (R)-5-cyano-N-(1-(2-hydroxy-2-(4-methyl-1-oxo-1,3-dihydroisobenzofuran-5-yl)ethyl)piperidin-4-yl)-4-methoxypicolinamide]
6.87 | 13365 | – | – | – | – | – | – | – | – | – | – | – | – | – | – | – | half-life ([2]; both sexes, rat, plasma, 0.5% CMC-Na suspension, read-out: T1/2 (half-life) (converted)): 5.24 h; Vd/F ([2]; both sexes, rat, plasma, 0.5% CMC-Na suspension, read-out: Vz/F—obs (apparent distribution volume)): 3.09 L/kg; clearance compared to the free form ([2]; in words): lower; exposure dose compared to the free form ([2]; in words): higher; half-life compared to the free form ([2]; in words): longer | COc1cc(C(=O)NC2CCN(C[C@H](O)c3ccc4c(c3C)COC4=O)CC2)ncc1C#N.O=C(O)CC(O)C(=O)O [Crystal form 2 of the malate, (R)-5-cyano-N-(1-(2-hydroxy-2-(4-methyl-1-oxo-1,3-dihydroisobenzofuran-5-yl)ethyl)piperidin-4-yl)-4-methoxypicolinamide]
– | – | 99.67 | 99.52 | 99.45 | 99.67 | 99.55 | 99.39 | 99.67 | 99.54 | 99.34 | 99.67 | 99.53 | 99.39 | 99.67 | 99.59 | 99.43 | DSC peak after treatment ([4]; Grinding treatment for 10 minutes in a mortar under nitrogen): 214.17 °C; DSC peak after treatment ([4]; Heating treatment for 3 hours at 80° C.): 214.40 °C; DSC peak after treatment ([4]; Tableting treatment): 214.44 °C; stability of the crystal form ([4]; grinding, heating / pressure (tableting), in words): stable; stability under conditions of lighting, high temperature and high humidity ([3]; in words): stable; stability compared with crystal form II ([3]; spread flat in air, lighting, high temperature and high humidity, in words): significantly better | COc1cc(C(=O)NC2CCN(C[C@H](O)c3ccc4c(c3C)COC4=O)CC2)ncc1C#N.O=C(O)C(O)C(O)C(=O)O [Crystal form I, L-tartrate of (R)-5-cyano-N-(1-(2-hydroxy-2-(4-methyl-1-oxo-1,3-dihydroisobenzofuran-5-yl)ethyl)piperidin-4-yl)-4-methoxypicolinamide]
